Laboratory results as given in PubChem BioAssay (NCI).
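A five-concentration, 48-hour dose response in 96-well plates underlies each endpoint, interpolated linearly between surrounding concentrations. The concentration for 50% growth inhibition is given as GI50. Definition used: TGI = concentration required for complete inhibition of growth.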

How the values were obtained:
Assay in all cases: NCI-60 cell line screen, 48 h
HT29 colon = test system: HT29 colon
UACC-257 melanoma = test system: UACC-257 melanoma
LOX IMVI melanoma = test system: LOX IMVI melanoma
HCC-2998 colon = test system: HCC-2998 colon
EKVX NSCLC = test system: EKVX NSCLC
HCT-15 colon = test system: HCT-15 colon
UO-31 renal = test system: UO-31 renal
CAKI-1 renal = test system: CAKI-1 renal
TK-10 renal = test system: TK-10 renal
SK-MEL-5 melanoma = test system: SK-MEL-5 melanoma

Compound	GI50 (HT29 colon) [µM]	TGI (HT29 colon) [µM]	GI50 (UACC-257 melanoma) [µM]	TGI (UACC-257 melanoma) [µM]	GI50 (LOX IMVI melanoma) [µM]	TGI (LOX IMVI melanoma) [µM]	GI50 (HCC-2998 colon) [µM]	TGI (HCC-2998 colon) [µM]	GI50 (EKVX NSCLC) [µM]	TGI (EKVX NSCLC) [µM]	GI50 (HCT-15 colon) [µM]	TGI (HCT-15 colon) [µM]	GI50 (UO-31 renal) [µM]	TGI (UO-31 renal) [µM]	GI50 (CAKI-1 renal) [µM]	TGI (CAKI-1 renal) [µM]	GI50 (TK-10 renal) [µM]	TGI (TK-10 renal) [µM]	GI50 (SK-MEL-5 melanoma) [µM]	TGI (SK-MEL-5 melanoma) [µM]
O=C1c2ccc([N+](=O)[O-])cc2-c2c1c1ccccc1c(=O)n2CCCNCCCNCCCn1c2c(c3ccc([N+](=O)[O-])cc3c1=O)C(=O)c1ccccc1-2	0.182	1.48	18	59.6	2.7	16	3.08	9.77	8.76	32.1	3.4	14.3	10.4	33.8	3.33	20.8	5.32	33.9	3.07	20.9
CO/C(=N\N=C\c1cccc(Cl)c1)c1ccncc1	–	> 10	–	> 10	–	> 10	–	> 10	–	> 10	–	> 10	–	> 10	–	> 10	–	> 10	–	–
Cc1ccc(/C(=N\N=C(N)N)c2ccccc2)cc1	0.344	5.73	11.7	28.2	0.611	12.5	0.241	0.677	0.998	26	0.371	11.5	1.12	17.1	0.843	20.1	0.549	15.1	0.353	1.73
NC1CCCCC1.[O]=[Ge].[O]=[Ge].[O]=[Ge][OH].[O]=[Ge][OH]	–	> 100	–	> 100	–	> 100	–	> 100	–	> 100	–	> 100	> 100	> 100	> 100	> 100	> 100	> 100	–	> 100
CN1CCN(c2ccc(NC(=O)c3nc4ccc5[nH]ncc5c4c4c3CCCC4)cc2C(F)(F)F)CC1	1.02	3.06	0.902	1.88	0.836	1.55	1.1	2.99	1.44	8.62	0.845	1.78	0.843	1.65	1.52	7.72	1.04	2.2	1.53	5.23
C=C(CCCCCCCCC)CC(=O)SCCNC(=O)CCNC(=O)C(O)C(C)(C)COP(=O)(O)OP(=O)(O)OCC1OC(n2cnc3c(N)ncnc32)C(O)C1OP(=O)(O)O (stereo not drawn)	–	> 100	–	> 100	–	75.7	–	> 100	–	> 100	–	> 100	–	> 100	–	> 100	–	> 100	–	52.2
O=C(/C=C/C12c3ccccc3C(c3ccccc31)C1C(=O)N(c3ccccc3)C(=O)C12)c1ccccc1 (stereo not drawn)	2.69	> 100	2.3	39.2	1.66	3.51	1.75	3.62	2.09	> 100	1.6	10.6	–	–	1.5	> 100	6.22	> 100	2.29	6.21
COc1ccccc1/C=C1\CCC(CCN(C)C)(C2=CCCC2)C1=O (stereo not drawn)	–	39.3	–	31	–	31.3	–	31.9	–	18.6	–	61.8	–	31.4	–	57.2	–	37.5	–	26.7
CCO/C=C/C(C)C1(C(=O)OCC)CCCCC1=O (stereo not drawn)	–	> 100	–	> 100	–	> 100	–	> 100	–	> 100	–	> 100	–	> 100	–	> 100	–	> 100	–	> 100
CCC(=O)O[C@H]1CC[C@H]2[C@@H]3CC[C@H]4CC(=O)[C@H](C)C[C@]4(C)[C@H]3CC[C@]12C	19.2	> 100	20.8	92.7	25.2	> 100	49.7	> 100	22.1	> 100	37.7	> 100	24.5	> 100	> 41.7	> 100	43.7	> 100	5.89	> 60.9
CCCCCCCNc1nc(C(=O)OCC)ncc1-c1ccc(C(F)(F)F)cc1	41.5	> 100	26.6	75.6	40.9	> 100	41.5	> 100	–	–	33.2	> 100	16.4	77.1	38.2	> 100	51.2	> 100	20.6	51.9
OCCCOC(c1ccccc1)(c1ccccc1)c1ccccc1	–	92.8	–	> 100	–	> 100	–	> 100	–	–	–	> 100	–	> 100	–	> 100	–	> 100	–	> 100
O=C1C(c2c[nH]c3ccccc23)=C(c2c[nH]c3ccccc23)C(=O)N1O	> 25	> 25	> 25	> 25	4.65	> 25	> 25	> 25	–	–	> 25	> 25	5.78	> 25	> 20.8	> 25	> 25	> 25	> 25	> 25
COc1ccc(N2Cc3cnc(Nc4ccccc4)nc3N([C@@H]3CC[C@@H](O)C3)C2=O)cc1	3.57	> 25	7.36	> 25	1.14	5.17	18.8	> 25	–	–	1.66	> 25	0.869	> 16.5	1.36	> 9.74	1.54	12.9	9.25	> 25
